Laboratory results: PMC7822874, “Chemoprotective antimalarials identified through quantitative high-throughput screening of Plasmodium blood and liver stage parasites” (Scientific Reports, 2021)
Where two headings read alike, the source gives them in different places.

Columns and labels:
[1] = system: Plasmodium falciparum Dd2 asexual blood stage parasites; assay: microbe, parasite or virus in culture; design: species or system Plasmodium falciparum Dd2 in human erythrocytes; single determination (one 11-point concentration-response curve); conditions: Plasmodium falciparum, DD2, Erythrocyte, 72 h
[2] = system: P. berghei-ANKA-GFP-LucCON liver stage parasites in HepG2-A16-CD81EGFP cells; assay: P. berghei liver stage Pb-Luc assay, Method 1 (UCSD, 1536-well); format: cell-based, Plasmodium berghei; conditions: for activity at 1 µM / activity at 3 µM: 48 h, average of 2 wells on a 1536 well plate; for activity at 1 µM: 1 uM (compounds provided at 10 mM); for activity at 3 µM: 3 uM (compounds provided at 10 mM); for Max Resp (signal direction of the dose response) / AC50 / Log AC50 (M): Method 1; for Max Resp (signal direction of the dose response): Decrease = decreasing P. berghei viability with dose, Increase = increasing signal, Inactive = no dose response
in vitro = conditions: human
[3] = Plasmodium berghei, column 11, read-out: Pb-Luc (P. berghei liver stage), % of control, lower concentration, first repeat
[4] = Plasmodium berghei, column 12, read-out: Pb-Luc (P. berghei liver stage), % of control, lower concentration, second repeat
[5] = Plasmodium berghei, column 8, read-out: Pb-Luc (P. berghei liver stage), % of control, higher concentration, first repeat
[6] = Plasmodium berghei, column 9, read-out: Pb-Luc (P. berghei liver stage), % of control, higher concentration, second repeat
[7] = HepG2-A16-CD81EGFP cells, uninfected
[8] = Hill fit, 50% of maximum activity response, read-out: AC50
[9] = log10 of molar AC50 from Hill fit
[10] = Plasmodium berghei, Hill fit, 50% of maximum activity response, read-out: AC50
[11] = Plasmodium berghei, log10 of molar AC50 from Hill fit, read-out: Log AC50 (converted)

Compound | AC50 ([1]; read-out: AC50) | viability at 48 h, 1 µM (in vitro; [7]) | viability at 48 h, 3 µM (in vitro; [7]) | viability at 66 h (in vitro; [7]) | further results
CC(C)(C)CC(C)(C)c1ccc(O)c(CN2CCN(CCC#N)CC2)c1 [MLS000026875-01] | 0.841 µM | 112% | 97% | – | activity at 1 µM [2, 3]: 129%; activity at 1 µM [2, 4]: 117%; activity at 3 µM [2, 5]: 119%; activity at 3 µM [2, 6]: 112%
Cc1cc(NC2C3CC4CC(C3)CC2C4)n2nnnc2n1 (stereo not shown) [MLS000033680-01] | – | 99% | 108% | – | activity at 1 µM [2, 3]: 124%; activity at 1 µM [2, 4]: 128%; activity at 3 µM [2, 5]: 108%; activity at 3 µM [2, 6]: 131%
CCNc1nc(OC)nc(Oc2ccc(=O)n(-c3ccccc3)n2)n1 [MLS000034902-01] | 5.96 µM | 112% | 101% | – | activity at 1 µM [2, 3]: 118%; activity at 1 µM [2, 4]: 109%; activity at 3 µM [2, 5]: 117%; activity at 3 µM [2, 6]: 126%
Cc1[nH]c2c(C)cccc2c(=O)c1Br [MLS000036254-01] | 5.31 µM | 107% | – | – | Max Resp (signal direction of the dose response) [2]: Decrease; AC50 [2, 8]: 1.58 µM; Log AC50 (M) [2, 9]: -5.800 M; AC50 [2, 10]: 1.12 µM; AC50 [2, 11]: 1.12 µM; viability at 48 h (in vitro; [7]): 107%
c1cncc(-c2nnc(-c3cccnc3)nn2)c1 [MLS000075752-01] | – | 98% | 100% | – | activity at 1 µM [2, 3]: 110%; activity at 1 µM [2, 4]: 109%; activity at 3 µM [2, 5]: 109%; activity at 3 µM [2, 6]: 117%
C=C(C)COc1ccc(-c2n[nH]cc2-c2ccc(OC)c(OC)c2)c(O)c1 [MLS000084580-01] | 6.68 µM | – | – | 36% | Max Resp (signal direction of the dose response) [2]: Decrease; AC50 [2, 10]: 0.501 µM; AC50 [2, 11]: 0.501 µM
COc1ccc(NC2=NC3(CCCCC3)N=C(N)N2)cc1 [MLS000090248-01] | – | 113% | 97% | – | activity at 1 µM [2, 3]: 133%; activity at 1 µM [2, 4]: 110%; activity at 3 µM [2, 5]: 100%; activity at 3 µM [2, 6]: 80%
CCOC(=O)CCCCC(=O)c1[nH]c(=O)[nH]c1Cn1ccnc1 [MLS000092014-01] | 2.66 µM | 98% | 107% | – | activity at 1 µM [2, 3]: 140%; activity at 1 µM [2, 4]: 105%; activity at 3 µM [2, 5]: 84%; activity at 3 µM [2, 6]: 105%
Oc1cc(Cc2ccccc2)cnc1CN1CCCCC1 [MLS000104838-01] | 0.944 µM | 98% | 105% | – | activity at 1 µM [2, 3]: 128%; activity at 1 µM [2, 4]: 110%; activity at 3 µM [2, 5]: 97%; activity at 3 µM [2, 6]: 103%
Cc1ccc(Oc2ccc(NC(=O)c3ccco3)cc2)cc1 [MLS000111237-01] | 10.6 µM | – | – | 95.1% | Max Resp (signal direction of the dose response) [2]: Decrease; AC50 [2, 8]: 0.158 µM; Log AC50 (M) [2, 9]: -6.800 M; AC50 [2, 10]: 0.1 µM; AC50 [2, 11]: 0.1 µM
O=C(CN1CCN(C(=O)c2ccco2)CC1)Nc1cc(Cl)ccc1Cl [MLS000122513-01] | 5.96 µM | – | – | 97.6% | Max Resp (signal direction of the dose response) [2]: Inactive
COc1ccccc1NC(=O)CN1CCN(C(=O)c2ccco2)CC1 [MLS000122729-01] | – | 101% | 101% | – | activity at 1 µM [2, 3]: 130%; activity at 1 µM [2, 4]: 101%; activity at 3 µM [2, 5]: 50%; activity at 3 µM [2, 6]: 80%
COc1cccc(CNCC(O)(c2ccc(Cl)cc2)c2ccc(Cl)cc2)c1 [MLS000325699-01] | – | 106% | 101% | – | activity at 1 µM [2, 3]: 124%; activity at 1 µM [2, 4]: 99%; activity at 3 µM [2, 5]: 99%; activity at 3 µM [2, 6]: 98%
COc1ccc(Cc2nnc(NC(=O)c3ccc(OC)cc3OC)s2)cc1 [MLS001211969-01] | – | 100% | 104% | – | activity at 1 µM [2, 3]: 125%; activity at 1 µM [2, 4]: 130%; activity at 3 µM [2, 5]: 128%; activity at 3 µM [2, 6]: 128%
COc1cccc(N=C(S)N2CCN(S(=O)(=O)c3ccc(F)cc3)CC2)c1 [MLS001230093-01] | 2.66 µM | 91% | 89% | – | –
Cc1ccc2sc(N3CCN(C(=O)c4ccc([N+](=O)[O-])o4)CC3)nc2c1C [MLS001234068-01] | 5.31 µM | 111% | 105% | – | –
O=C(c1ccc([N+](=O)[O-])o1)N1CCN(c2nc3c(F)cc(F)cc3s2)CC1 [MLS001234228-01] | 5.96 µM | 103% | 108% | – | –
CCc1cccc2sc(N3CCN(C(=O)c4ccc([N+](=O)[O-])o4)CC3)nc12 [MLS001234237-01] | 1.06 µM | 106% | 115% | – | –
O=C1C(c2ccccc2)=[N+](O)c2ccccc21 [MLS001241052-01] | 1.88 µM | – | – | 97.9% | –
CCCCCCSc1ccc([C@H]2N[C@@](Cc3ccccc3)(C(=O)OC)[C@H]3C(=O)N(C)C(=O)[C@@H]23)cc1 [MLS001361994-01] | 4.73 µM | 112% | 100% | – | –

Compound | AC50 ([1]; read-out: AC50) | viability at 48 h, 1 µM (in vitro; [7]) | viability at 48 h, 3 µM (in vitro; [7]) | viability at 66 h (in vitro; [7]) | further results
COC(=O)[C@H]1[C@H]2C[C@@H]3c4[nH]c5cc(OC)ccc5c4CCN3C[C@H]2C[C@@H](OC(=O)/C=C/c2cc(OC)c(OC)c(OC)c2)[C@@H]1OC [MLS002153878-01] | 5.31 µM | – | – | – | viability at 48 h (in vitro): 106%; viability at 48 h, 1 µM (in vitro): 106%
COC(=O)[C@]1(C)CCC[C@@]2(C)C3CC[C@@]4(C)C[C@]3(CCC21)CC(=O)N4Cc1ccc(OC)cc1 (stereo partly shown) [MLS002207414-01] | 3.76 µM | – | – | 96.7% | –
Oc1ccc(Cl)cc1CNCc1ccc(C(F)(F)F)cc1 [MLS002207454-01] | 4.22 µM | – | – | 109% | –
Oc1ccc(Cl)cc1CNCc1cccc2ccccc12 [MLS002207460-01] | 0.841 µM | 103% | 107% | – | –
COc1ccc(-c2oc3ccccc3c2C#Cc2cncn2C)cc1 [MLS002402884-01] | 1.06 µM | 112% | 95% | – | –
N#Cc1nc(Nc2cc(F)cc(F)c2)c2ncn(CC(F)F)c2n1 [MLS002471784-01] | 4.73 µM | 97% | 87% | – | –
CCN1CCN(Cc2ccc(NC(=O)c3ccc(C)c(NC(=O)C(=O)c4c[nH]c5ccccc45)c3)cc2C(F)(F)F)CC1 [MLS003105967-01] | 1.5 µM | – | – | 106% | –
CCN1CCN(Cc2ccc(NC(=O)c3cc(NC(=O)C(=O)c4c[nH]c5ccccc45)cc(OC)c3)cc2C(F)(F)F)CC1 [MLS003105970-01] | 0.668 µM | – | – | 105% | –
Cc1cn(-c2cc(C(=O)Nc3ccc(C)c(NC(=O)C(=O)c4c[nH]c5ccccc45)c3)cc(C(F)(F)F)c2)cn1 [MLS003105973-01] | 2.11 µM | 112% | – | – | viability at 48 h (in vitro; [7]): 112%
O=C(CC[S+](=O)([O-])c1cc(Br)cc2c1N(C(=O)C1CC1)CC2)Nc1ccc(Br)cc1F [NCGC00107188-01] | – | – | – | 94% | AC50 [1]: 3.35 µM
O=C(CC[S+](=O)([O-])c1cc(Br)cc2c1N(C(=O)C1CC1)CC2)Nc1ccc(C(F)(F)F)cc1 [NCGC00107224-01] | – | – | – | 97.7% | AC50 [1]: 1.33 µM
Cc1ccc(NC(=O)CC[S+](=O)([O-])c2cc(Br)cc3c2N(C(=O)C2CC2)CC3)cc1 [NCGC00107230-01] | 2.37 µM | – | – | 101% | –
CCCCN(CC)CCNC(=O)c1cc2c(-c3ccc(Cl)cc3)nn(C)c2s1 [NCGC00108995-01] | 0.668 µM | 102% | 97% | – | –
COCCCNc1nc2cc(OC)c(OC)cc2c2nc(-c3ccccc3)nn12 [NCGC00112853-01] | 0.237 µM | 105% | 99% | – | –
CCc1cccc(-n2c(=O)c3cccnc3n2CC(=O)NCc2ccc(C)cc2)c1 [NCGC00128446-01] | – | – | – | – | AC50 [1]: 1.68 µM; viability (in vitro): 83.3%
CCN(CC)CCCC(C)Nc1cc(C=Cc2ccccc2Cl)nc2cc(Cl)ccc12 (stereo not shown) [NCGC00160524-01] | 0.841 µM | 103% | 99% | – | –
CC(C)C(=O)OCC(=O)[C@@]12O[C@H](C3CCCCC3)O[C@@H]1C[C@H]1[C@@H]3CCC4=CC(=O)C=C[C@]4(C)[C@H]3[C@@H](O)C[C@@]12C [NCGC00167484-01] | 2.66 µM | 97% | 94% | – | –
CCOC(=O)c1cnc2cc(OCC(C)C)c(OCC(C)C)cc2c1O [NCGC00167562-01] | 0.944 µM | 83% | 82% | – | –
O=C(NCCCN1CCCC1)c1ccc2c(c1)N([S+](=O)([O-])c1ccccc1F)CC2 [NCGC00430450-01] | 9.44 µM | – | – | 97.4% | –
COc1ccc([S+](=O)([O-])Nc2ccc(C)n(CC(=O)Nc3ccccc3)c2=O)cc1 [NCGC00430934-01] | 2.66 µM | – | – | 103% | –
